{"source": "patent US9890357B2", "about": "“Method for inducing differentiation of human pluripotent stem cells into intermediate mesoderm cells” (Kyoto University, priority 2011, dated 2018)", "key": {"[1]": {"test_system": "OSR1-GFP reporter iPS cells", "assay": "Induction of differentiation into intermediate mesoderm cells (novel induction method 1), flow cytometry using OSR1 (GFP) expression", "format": "cell-based, human", "conditions": "novel induction method 1: 2 days 3 micromolar CHIR99021 + 10 micromolar Y-27632, then 8 days 1 micromolar retinoic acid derivative", "procedure": "(§1) Human iPS cells (201B7) provided by Dr. Yamanaka at Kyoto University were cultured by the known method (Takahashi, K. et al., Cell 131: 861-872). Subsequently, a GFP-PGK-Neo cassette was inserted into a site downstream of the OSR1 initiation codon of a BAC clone (RP11-458J18) (BACPAC RESOURCES) using pRed/ET (Gene Bridges GmbH), so as to prepare a OSR1-GFP BAC transgene. The resulting modified BAC clone was introduced into the human iPS cell and the OSR1-GFP reporter iPS cell line expressing GFP in conjunction with the expression of endogenous OSR1 was established.\n(§2) The above OSR1-GFP reporter iPS cells were cultured to confluence on a 10-cm dish using SNL cells as feeder cells (McMahon, A. P. and Bradley, A., 1990, Cell 62; 1073-1085). A CTK solution was added to the cells for dissociation, the feeder cells were removed, and the iPS cells were dispersed into single cells with the addition of Accutase.\nSubsequently, the iPS cells were suspended in a DMEM/F12 medium containing Glutamax, 2% FBS, and PenStrep, and 10 micromolar Y-27632 and 3 micromolar CHIR99021 were added thereto. Subsequently, the cell suspension was transferred to a dish coated with 0.1% gelatin, and culture was conducted for 2 days. […]\nAfter the cell culture had been conducted for 8 days, the cells were analyzed by flow cytometry (FACS) using OSR1 expression as an indicator."}, "[2]": {"test_system": "OSR1-GFP reporter iPS cells", "assay": "Induction of differentiation into intermediate mesoderm cells (novel induction methods 2 and 3), flow cytometry using OSR1 (GFP) expression; time course", "format": "cell-based, human", "conditions": "for time at which growth of OSR1 positive cells had plateau after the medium change: cell numbers measured 3, 5, 8 or 12 days after change to medium with 1 micromolar retinoic acid derivative", "procedure": "as §1, §2\nSubsequently, the iPS cells were suspended in a DMEM/F12 medium containing Glutamax, 2% FBS, and PenStrep, and a combination of (1) 10 micromolar Y-27632 (ROCK inhibitor), 3 micromolar CHIR99021, and 1 micromolar AM580 or (2) 10 micromolar Y-27632 (ROCK inhibitor), 3 micromolar CHIR99021, and 1 micromolar TTNPB was added thereto. Subsequently, the cell suspension was transferred to a dish coated with 0.1% gelatin, and culture was conducted for 2 days.\nThereafter, the medium was removed, the culture product was washed in PBS, and the iPS cells were then cultured for an additional 8 days (novel induction method 2) or 3 days (novel induction method 3) in a medium prepared by adding 1 micromolar AM580 or 1 micromolar TTNPB to a DMEM/F12 medium containing 2-mercaptoethanol, Glutamax, 10% KOCKOUT SR, 0.1 mM MEM NEAA, and PenStrep. During culture, the medium was exchanged with fresh medium once every 3 days in the case of the novel induction method 2.\nAfter the cell culture had been conducted for 8 or 3 days, the cells were analyzed by flow cytometry (FACS) using OSR1 expression as an indicator.\nNext, the length of time from medium change was studied. Briefly, number of OSR1 positive cells and total cells were measured at 3 days (novel induction method 3), 5 days, 8 days (novel induction method 2) or 12 days after the medium was changed to a medium prepared by adding 1 micromolar AM580 or 1 micromolar TTNPB to a DMEM/F12 medium containing 2-mercaptoethanol, Glutamax, 10% KOCKOUT SR, 0.1 mM MEM NEAA, and PenStrep (FIG. 4). The growth of OSR1 positive cells had plateau at 8 day after the medium change."}, "[3]": {"test_system": "iPS cell clones (201B6, 253G1, 263G4 and 585A1) and ES cell clone (KhES1, KhES3 and H9)", "assay": "Level of OSR1 expression after differentiation from each iPS cell clone or ES clone (novel induction method 3)", "format": "cell-based, human", "source_text": "White bar indicates the result using AM580. Black bar indicates the result using TTNPB. Grey bar indicate the result of conventional method without AM580 and TTNPB."}, "[4]": {"test_system": "intranuclear receptor of retinoic acid (RAR)", "assay": "Activity through retinoic acid pathway compared with ATRA", "conditions": "stated as effect of the invention, no test described"}, "[5]": {"assay": "Cytotoxicity compared with ATRA", "format": "cell-based", "conditions": "stated as effect of the invention, no test described"}, "[6]": {"test_system": "OSR1-GFP reporter iPS cells", "assay": "Long term culture of OSR1 (GFP) positive cells, RT-PCR and immunostaining", "format": "cell-based, human", "conditions": "novel induction method 3 with 1 micromolar TTNPB, then 8 days with 100 ng/ml BMP7, 100 ng/ml Wnt3a on Matrigel", "procedure": "The above OSR1-GFP reporter iPS cells were dissociated into single cells in a manner similar to Example 2. Subsequently, the iPS cells were suspended in a DMEM/F12 medium containing Glutamax, 2% FBS, and PenStrep, and a combination of 10 micromolar Y-27632, 3 micromolar CHIR99021, and 1 micromolar TTNPB was added thereto. Subsequently, the cell suspension was transferred to a dish coated with 0.1% gelatin, and culture was conducted for 2 days. Thereafter, the medium was removed, the culture product was washed in PBS, and the iPS cells were then cultured for an additional 3 days (novel induction method 3) in a medium prepared by adding 1 micromolar TTNPB to a DMEM/F12 medium containing 2-mercaptoethanol, Glutamax, 10% KOCKOUT SR, 0.1 mM MEM NEAA, and PenStrep. After isolating GFP positive cells from obtained cells with flow cytometer, the GFP positive cells were transferred to a dish coated with Matrigel (BD), and cultured in DMEM/F12 medium containing 10 micromolar Y-27632, 100 ng/ml BMP7, 100 ng/ml Wnt3a, 2-mercaptoethanol, Glutamax, 10% KOCKOUT SR, 0.1 mM MEM NEAA, and PenStrep for 8 days. During culture, the medium was exchanged with fresh medium once every 3 days. Obtained cells were analyzed with RT-PCR (FIG. 7A) and immunostaining (FIG. 7B). […]"}, "[7]": {"test_system": "OSR1-GFP reporter iPS cells", "assay": "Suspention culture of OSR1 (GFP) positive cells to form sphere, immunostaining", "format": "cell-based, human", "conditions": "novel induction method 3 with 1 micromolar TTNPB, then suspention culture on low cell adhesion plate", "procedure": "The above OSR1-GFP reporter iPS cells were dispersed into single cells in a manner similar to Example 2. Subsequently, the iPS cells were suspended in a DMEM/F12 medium containing Glutamax, 2% FBS, and PenStrep, and a combination of 10 micromolar Y-27632, 3 micromolar CHIR99021, and 1 micromolar TTNPB was added thereto. Subsequently, the cell suspension was transferred to a dish coated with 0.1% gelatin, and culture was conducted for 2 days. Thereafter, the medium was removed, the culture product was washed in PBS, and the iPS cells were then cultured for an additional 3 days (novel induction method 3) in a medium prepared by adding 1 micromolar TTNPB to a DMEM/F12 medium containing 2-mercaptoethanol, Glutamax, 10% KOCKOUT SR, 0.1 mM MEM NEAA, and PenStrep. After isolating GFP positive cells from obtained cells with flow cytometer, 1×10^5 GFP positive cells were transferred to a low cell adhesion plate (PrimeSurface, Sumitomo Bakelite co.), and cultured in DMEM/F12 medium containing 10 micromolar Y-27632, 2-mercaptoethanol, Glutamax, 10% KOCKOUT SR, 0.1 mM MEM NEAA, and PenStrep in suspention to form cell sphere. During culture, the medium was exchanged with fresh medium once every 3 days.\nObtained cells were analyzed with immunostaining (FIG. 8)."}, "[8]": {"test_system": "OSR1-GFP reporter iPS cells", "assay": "Organ culture of OSR1 (GFP) positive cells with mouse metanephric cells, immunostaining", "format": "cell-based, human", "conditions": "novel induction method 3 with 1 micromolar TTNPB, then mixed with E11.5 mouse metanephric cells, 7 days floating culture", "procedure": "The above OSR1-GFP reporter iPS cells were dissociated into single cells in a manner similar to Example 2. Subsequently, the iPS cells were suspended in a DMEM/F12 medium containing Glutamax, 2% FBS, and PenStrep, and a combination of 10 micromolar Y-27632, 3 micromolar CHIR99021, and 1 micromolar TTNPB was added thereto. Subsequently, the cell suspension was transferred to a dish coated with 0.1% gelatin, and culture was conducted for 2 days. Thereafter, the medium was removed, the culture product was washed in PBS, and the iPS cells were then cultured for an additional 3 days (novel induction method 3) in a medium prepared by adding 1 micromolar TTNPB to a DMEM/F12 medium containing 2-mercaptoethanol, Glutamax, 10% KOCKOUT SR, 0.1 mM MEM NEAA, and PenStrep. After isolating GFP positive cells from obtained cells with flow cytometer, 1×10^4 GFP positive cells were mixed with 1×10^5 mouse metanephric cells obtained from E11.5 mouse embryo on a low cell adhesion plate (PrimeSurface). The next day, cell sphere was transferred on the Isopore™ Membrane Filters (Merck Millipore) floated on Improve MEM medium containing 10 micromolar Y-27632, 10% FBS and PenStrep. During culture, the medium was exchanged with fresh medium once every 3 days. Obtained cells were analyzed with immunostaining at 7 days after floating culture (FIG. 9)."}, "[9]": {"conditions": "novel induction method 2: 2 days 3 micromolar CHIR99021 + 10 micromolar Y-27632 + 1 micromolar retinoic acid derivative, then 8 days 1 micromolar retinoic acid derivative"}, "[10]": {"conditions": "novel induction method 3: 2 days 3 micromolar CHIR99021 + 10 micromolar Y-27632 + 1 micromolar retinoic acid derivative, then 3 days 1 micromolar retinoic acid derivative"}}}
{"compound": "CC1(C)CCC(C)(C)c2cc(C(=O)Nc3ccc(C(=O)O)cc3)ccc21", "note": "[AM580, 4-[[(5,6,7,8-tetrahydro-5,5,8,8-tetramethyl-2-naphthalenyl)carbonyl]amino]-benzoic acid]", "values": [{"measurement": "induction of OSR1-positive cells (FACS)", "setting": "[1]", "value": "OSR1-positive cells were successfully induced"}, {"measurement": "time at which growth of OSR1 positive cells had plateau after the medium change", "setting": "[2]", "value": 8, "unit": "days"}, {"measurement": "induction of OSR1-positive cells (FACS)", "setting": "[2]; [9]", "value": "OSR1-positive cells were successfully induced"}, {"measurement": "induction of OSR1-positive cells (FACS)", "setting": "[2]; [10]", "value": "OSR1-positive cells were successfully induced"}, {"measurement": "differentiation of further iPS and ES cell clones into intermediate mesoderm cells", "setting": "[3]", "value": "could be differentiated into intermediate mesoderm cells"}, {"measurement": "activity relative to all-trans retinoic acid (ATRA)", "setting": "[4]", "value": "higher than that of all-trans retinoic acid (ATRA)"}, {"measurement": "cytotoxicity relative to ATRA", "setting": "[5]", "value": "lower cytotoxicity compared with ATRA"}]}
{"compound": "C/C(=C\\c1ccc(C(=O)O)cc1)c1ccc2c(c1)C(C)(C)CCC2(C)C", "note": "[TTNPB, 4-[(1E)-2-(5,6,7,8-tetrahydro-5,5,8,8-tetramethyl-2-naphthalenyl)-1-propen-1-yl]-benzoic acid]", "values": [{"measurement": "induction of OSR1-positive cells (FACS)", "setting": "[1]", "value": "OSR1-positive cells were successfully induced"}, {"measurement": "time at which growth of OSR1 positive cells had plateau after the medium change", "setting": "[2]", "value": 8, "unit": "days"}, {"measurement": "induction of OSR1-positive cells (FACS)", "setting": "[2]; [9]", "value": "OSR1-positive cells were successfully induced"}, {"measurement": "induction of OSR1-positive cells (FACS)", "setting": "[2]; [10]", "value": "OSR1-positive cells were successfully induced"}, {"measurement": "differentiation of further iPS and ES cell clones into intermediate mesoderm cells", "setting": "[3]", "value": "could be differentiated into intermediate mesoderm cells"}, {"measurement": "further differentiation of obtained OSR1 positive cells", "setting": "[6]", "value": "could be further differentiated into renal precursor cells"}, {"measurement": "luminal structure formation from OSR1 positive cells by forming sphere", "setting": "[7]", "value": "luminal structure could be constructed"}, {"measurement": "luminal structure formation from OSR1 positive cells by mixed culture with organ", "setting": "[8]", "value": "luminal structure could be constructed"}, {"measurement": "activity relative to all-trans retinoic acid (ATRA)", "setting": "[4]", "value": "higher than that of all-trans retinoic acid (ATRA)"}, {"measurement": "cytotoxicity relative to ATRA", "setting": "[5]", "value": "lower cytotoxicity compared with ATRA"}]}
